Test results reported in patent US6821967B2, “Substituted piperazine derivatives, the preparation thereof and their use as medicaments” (Boehringer Ingelheim Pharma KG, priority 1999, dated 2004).

SMILES	melting point [°C]
O=C(NCc1ccc(F)cc1)C1(CCCCN2CCN(c3cnc4ccccc4n3)CC2)c2ccccc2-c2ccccc21 [Example 57, 9-[4-(4-quinoxalin-2-yl-piperazin-1-yl)-butyl]-9H-fluorene-9-carboxylic acid-4-fluoro-benzylamide]	160
Cn1c(N2CCN(CCCCC3(C(=O)NCC(F)(F)F)c4ccccc4-c4ccccc43)CC2)nc2cc(Cl)ccc21 [Example 19, 9-{4-[4-(5-chloro-1-methyl-1H-benzimidazol-2-yl)-piperazin-1-yl]-butyl}-9H-fluorene-9-carboxylic acid-(2,2,2-trifluoro-ethyl)-amide]	155
Cn1c(N2CCN(CCCCC3(C(=O)NCc4ccc(F)cc4)c4ccccc4-c4ccccc43)CC2)nc2ccccc21 [Example 60, 9-{4-[4-(1-methyl-1H-benzimidazol-2-yl)-piperazin-1-yl]-butyl}-9H-fluorene-9-carboxylic acid-4-fluoro-benzylamide]	55
COc1ccc(CNC(=O)C2(CCCCN3CCN(c4ccc5ccccc5n4)CC3)c3ccccc3-c3ccccc32)c(OC)c1 [Example 82, 9-[4-(4-quinolin-2-yl-piperazin-1-yl)-butyl]-9H-fluorene-9-carboxylic acid-2,4-dimethoxy-benzylamide]	44
O=C(NCc1ccc(F)cc1)C1(CCCCN2CCN(c3ccc4ccccc4n3)CC2)c2ccccc2-c2ccccc21 [Example 53, 9-[4-(4-quinolin-2-yl-piperazin-1-yl)-butyl]-9H-fluorene-9-carboxylic acid-4-fluoro-benzylamide]	58
O=C(N1CCOCC1)C1(CCCCN2CCN(c3ccc4ccccc4n3)CC2)c2ccccc2Oc2ccccc21 [Example 120, 1-morpholin-4-yl-1-{9-[4-(4-quinolin-2-yl-piperazin-1-yl)-butyl]-9H-xanthene-9-yl}-methanone]	48 to 58
O=C(NCc1cccs1)C1(CCCCN2CCN(c3ccc4ccccc4n3)CC2)c2ccccc2-c2ccccc21 [Example 90, 9-[4-(4-quinolin-2-yl-piperazin-1-yl)-butyl]-9H-fluorene-9-carboxylic acid-(thiophen-2-ylmethyl)-amide]	45 to 50
O=C(NCC(F)(F)F)C1(CCCCN2CCN(c3nc4ccccc4n3Cc3ccccc3)CC2)c2ccccc2-c2ccccc21 [Example 13, 9-{4-[4-(1-benzyl-1H-benzimidazol-2-yl)-piperazin-1-yl]-butyl}-9H-fluorene-9-carboxylic acid-(2,2,2-trifluoro-ethyl)-amide]	60
O=C(NCC(F)(F)F)C1(CCCN2CCN(c3nc4ccccc4s3)CC2)c2ccccc2-c2ccccc21 [Example 122, 9-[3-(4-benzothiazol-2-yl-piperazin-1-yl)-propyl]-9H-fluorene-9-carboxylic acid-(2,2,2-trifluoro-ethyl)-amide]	68
COc1cccc2ccc(N3CCN(CCCCC4(C(=O)NCC(F)(F)F)c5ccccc5-c5ccccc54)CC3)nc12 [Example 36, 9-{4-[4-(8-methoxy-quinolin-2-yl)-piperazin-1-yl]-butyl}-9H-fluorene-9-carboxylic acid-(2,2,2-trifluoro-ethyl)-amide]	67
O=C(NCC(F)(F)F)C1(CCCCN2CCN(c3ccc4ccccc4n3)CC2)c2ccccc2-c2ccccc21 [Example 3, 9-[4-(4-(quinolin-2-yl)-piperazin-1-yl)-butyl]-9H-fluorene-9-carboxylic acid-(2,2,2-trifluoro-ethyl)-amide]	56 to 57
C[C@@H]1CN(c2ccc3c(Cl)cccc3n2)C[C@H](C)N1CCCCC1(C(=O)NCc2ccc(F)cc2)c2ccccc2-c2ccccc21 [Example 66, 9-{4-[4-(5-chloro-quinolin-2-yl)-cis-2,6-dimethyl-piperazin-1-yl]-butyl}-9H-fluorene-9-carboxylic acid-4-fluoro-benzylamide]	136 to 137
Cn1c(N2CCN(CCCCC3(C(=O)NCC(F)(F)F)c4ccccc4Oc4ccccc43)CC2)nc2ccccc21 [Example 102, 9-{4-[4-(1-methyl-1H-benzimidazol-2-yl)-piperazin-1-yl]-butyl}-9H-xanthene-9-carboxylic acid-(2,2,2-trifluoro-ethyl)-amide]	110
COCCCNC(=O)C1(CCCCN2CCN(c3ccc4ccccc4n3)CC2)c2ccccc2-c2ccccc21 [Example 93, 9-[4-(4-quinolin-2-yl-piperazin-1-yl)-butyl]-9H-fluorene-9-carboxylic acid-(3-methoxy-propyl)-amide]	87
O=C(O)CNC(=O)C1(CCCCN2CCN(c3ccc4ccccc4n3)CC2)c2ccccc2-c2ccccc21 [Example 97, 9-[4-(4-quinolin-2-yl-piperazin-1-yl)-butyl]-9H-fluorene-9-carboxylic acid-(carboxy-methyl)-amide]	127 to 129
C[C@@H]1CN(c2ncc3ccccc3n2)C[C@H](C)N1CCCCC1(C(=O)NCC(F)(F)F)c2ccccc2-c2ccccc21 [Example 47, 9-[4-(cis-2,6-dimethyl-4-quinazolin-2-yl-piperazin-1-yl)-butyl]-9H-fluorene-9-carboxylic acid-(2,2,2-trifluoro-ethyl)-amide]	174

SMILES	melting point [°C]
C[C@@H]1CN(c2ccc3ccccc3n2)C[C@H](C)N1CCCCC1(C(=O)NCc2ccc(F)cc2)c2ccccc2-c2ccccc21 [Example 65, 9-[4-(cis-2,6-dimethyl-4-quinolin-2-yl-piperazin-1-yl)butyl]-9H-fluorene-9-carboxylic acid-4-fluoro-benzylamide]	62
O=C(O)CCNC(=O)C1(CCCCN2CCN(c3ccc4ccccc4n3)CC2)c2ccccc2-c2ccccc21 [Example 96, 9-[4-(4-quinolin-2-yl-piperazin-1-yl)-butyl]-9H-fluorene-9-carboxylic acid-(2-carboxy-ethyl)-amide]	98 to 100
O=C(NCC(F)(F)F)C1(CCCCN2CCN(c3ccc4cc(Cl)ccc4n3)CC2)c2ccccc2Oc2ccccc21 [Example 105, 9-{4-[4-(6-chloro-quinolin-2-yl)-piperazin-1-yl]-butyl}-9H-xanthene-9-carboxylic acid-(2,2,2-trifluoro-ethyl)-amide]	165
C[C@H]1CN(c2ccc3ccccc3n2)CCN1CCCCC1(C(=O)NCC(F)(F)F)c2ccccc2Oc2ccccc21 [Example 109, 9-{4-[(S)-2-methyl-4-quinolin-2-yl-piperazin-1-yl]-butyl}-9H-xanthene-9-carboxylic acid-(2,2,2-trifluoro-ethyl)-amide]	52 to 53
C[C@@H]1CN(c2nc3ccccc3s2)C[C@H](C)N1CCCCC1(C(=O)NCC(F)(F)F)c2ccccc2Oc2ccccc21 [Example 110, 9-[4-(4-benzothiazol-2-yl-cis-2,6-dimethyl-piperazin-1-yl)-butyl]-9H-xanthene-9-carboxylic acid-(2,2,2-trifluoro-ethyl)-amide]	157
O=C(NCc1ccc(F)c(F)c1)C1(CCCCN2CCN(c3ccc4ccccc4n3)CC2)c2ccccc2-c2ccccc21 [Example 85, 9-[4-(4-quinolin-2-yl-piperazin-1-yl)-butyl]-9H-fluorene-9-carboxylic acid-3,4-difluoro-benzylamide]	141 to 143
C[C@@H]1CN(c2ccc3ccccc3n2)CCN1CCCCC1(C(=O)NCC(F)(F)F)c2ccccc2-c2ccccc21 [Example 39, 9-{4-[(R)-2-methyl-4-quinolin-2-yl-piperazin-1-yl]-butyl}-9H-fluorene-9-carboxylic acid-(2,2,2-trifluoro-ethyl)-amide]	102
O=C(NCC(F)(F)C(F)(F)F)C1(CCCCN2CCN(c3ccc4ccccc4n3)CC2)c2ccccc2-c2ccccc21 [Example 86, 9-[4-(4-quinolin-2-yl-piperazin-1-yl)-butyl]-9H-fluorene-9-carboxylic acid-(2,2,3,3,3-pentafluoro-propyl)-amide]	120
O=C(NCC(F)(F)F)C1(CCCCN2CCN(c3ccc4c(Cl)cccc4n3)CC2)c2ccccc2-c2ccccc21 [Example 27, 9-{4-[4-(5-chloro-quinolin-2-yl)-piperazin-1-yl]-butyl}-9H-fluorene-9-carboxylic acid-(2,2,2-trifluoro-ethyl)-amide]	142 to 143
O=C(NCC(F)(F)F)C1(CCCCN2CCN(c3ccc4cccc(Br)c4n3)CC2)c2ccccc2-c2ccccc21 [Example 32, 9-{4-[4-(8-bromo-quinolin-2-yl)-piperazin-1-yl]-butyl}-9H-fluorene-9-carboxylic acid-(2,2,2-trifluoro-ethyl)-amide]	66
COC(=O)CNC(=O)C1(CCCCN2CCN(c3ccc4ccccc4n3)CC2)c2ccccc2-c2ccccc21 [Example 95, 9-[4-(4-quinolin-2-yl-piperazin-1-yl)-butyl]-9H-fluorene-9-carboxylic acid-(methoxycarbonyl-methyl)-amide]	53 to 55
O=C(NCC(F)(F)F)C1(CCCCN2CCN(c3nc4ccccc4o3)CC2)c2ccccc2-c2ccccc21 [Example 2, 9-[4-(4-(benzoxazol-2-yl)-piperazin-1-yl)-butyl]-9H-fluorene-9-carboxylic acid-(2,2,2-trifluoro-ethyl)-amide]	128
O=C(NCC(F)(F)F)C1(CCCCN2CCN(c3cc(-c4ccccc4)c4ccccc4n3)CC2)c2ccccc2-c2ccccc21 [Example 25, 9-{4-[4-(4-phenyl-quinolin-2-yl)-piperazin-1-yl]-butyl}-9H-fluorene-9-carboxylic acid-(2,2,2-trifluoro-ethyl)-amide]	105
COc1ccc(CNC(=O)C2(CCCCN3CCN(c4ccc5c(Cl)cccc5n4)CC3)c3ccccc3-c3ccccc32)cc1 [Example 73, 9-{4-[4-(5-chloro-quinolin-2-yl)-piperazin-1-yl]-butyl}-9H-fluorene-9-carboxylic acid-4-methoxy-benzylamide]	135 to 136
COc1cccc2c1nc(N1CCN(CCCCC3(C(=O)NCC(F)(F)F)c4ccccc4-c4ccccc43)CC1)n2C [Example 20, 9-{4-[4-(4-methoxy-1-methyl-1H-benzimidazol-2-yl)-piperazin-1-yl]-butyl}-9H-fluorene-9-carboxylic acid-(2,2,2-trifluoro-ethyl)-amide]	146
